In patent USRE28744E, “Crystalline p-hydroxyampicillin and salts thereof” (priority 1968, dated 1976):
≈ marks a conversion by molar mass, not a printed value.

What was measured:
E.Coli = assay: in vitro antibacterial screening, M.I.C., E.Coli; assay type: cell-based; conditions: for MIC: Escherichia coli
From the text: (§1) The four resulting hydroxypenicillins were then submitted to in vitro antibacterial screening in comparison with the two epimers of α-aminobenzylpenicillin.

Proteus mirabilis = assay: in vitro antibacterial screening, M.I.C., Proteus mirabilis; assay type: cell-based
From the text: as §1

Salm. typhi = assay: in vitro antibacterial screening, M.I.C., Salm. typhi; assay type: cell-based; conditions: for MIC: Salmonella enterica, TYPHI, read-out: M.I.C. Salm. typhi, in vitro; for M.I.C. Salm. typhi: in vitro
From the text: as §1

Shigella flexneri = assay: in vitro antibacterial screening, M.I.C., Shigella flexneri; assay type: cell-based; conditions: for MIC: Shigella flexneri
From the text: as §1

Kleb. pneum = assay: in vitro antibacterial screening, M.I.C., Kleb. pneum; assay type: cell-based
From the text: as §1

clinical = conditions: human, urine, po, 500 mg
Method: (§2) The two penicillins were then compared with ampicillin in absorption studies in human volunteers. Groups of fasting volunteers were each given 500 mg. of the appropriate penicillin by mouth in capsules, and blood samples were withdrawn at regular intervals and assayed biologically to determine the serum concentration of the penicillins. The urine was also collected over a 6 hour period and similarly assayed to determine the proportion of the dose excreted via the kidneys.

E. coli 37 = assay: serial dilution in nutrient agar, synergy M.I.C., E. coli 37; assay type: cell-based; conditions: in the presence of 100 μg./ml. Nafcillin
Method: (§3) Results were obtained by serial dilution in nutrient agar. The inoculum was one drop of an overnight broth culture, and M.I.C. values were read after 18 hours at 37°C.

Proteus morganii G = assay: serial dilution in nutrient agar, synergy M.I.C., Proteus morganii G; assay type: cell-based
Method: as §3

Proteus vulgaris K = assay: serial dilution in nutrient agar, synergy M.I.C., Proteus vulgaris K; assay type: cell-based
Method: as §3

Paracolon 232 = assay: serial dilution in nutrient agar, synergy M.I.C., Paracolon 232; assay type: cell-based; conditions: in the presence of 100 μg./ml. Methicillin
Method: as §3

Klebsiella C 978 = assay: serial dilution in nutrient agar, synergy M.I.C., Klebsiella C 978; assay type: cell-based
Method: as §3

[1] = absorption studies in human volunteers (oral); conditions: serum, 500 mg
Method: as §2

E. coli 2 = assay: inhibition of E. coli 2; assay type: cell-based; conditions: Escherichia coli, product contaminated with approximately 5% of 6-aminopenicillanic acid, read-out: concentration inhibiting E. coli 2
Staph. Oxford = assay: inhibition of Staph. Oxford; assay type: cell-based; conditions: product contaminated with approximately 5% of 6-aminopenicillanic acid; read-out: concentration inhibiting Staph. Oxford
Gram-negative bacteria = conditions: 100 μg./ml.
Method: as §3

[2] = comparison within series; cited from earlier work
[3] = in the presence of 100 μg./ml. Dicloxacillin
[4] = in the presence of 100 μg./ml. Flucloxacillin
[5] = in the presence of 100 μg./ml. Methicillin

## CC1(C)S[C@@H]2[C@H](NC(=O)[C@H](N)c3ccccc3)C(=O)N2[C@H]1C(=O)O [Ampicillin, D(-)-epimer of α-aminobenzyl penicillin]
E.Coli
  MIC: 5 µg/mL (≈ 14.3 µM)
Proteus mirabilis; Proteus mirabilis
  MIC: 1.25 µg/mL (≈ 3.58 µM)
Salm. typhi
  MIC: 0.6 µg/mL (≈ 1.72 µM)
Shigella flexneri
  MIC: 12.5 µg/mL (≈ 35.8 µM)
Kleb. pneum
  MIC: 2.5 µg/mL (≈ 7.15 µM)
clinical
  dose excreted at 6 h: 42%

## CC1(C)S[C@@H]2[C@H](NC(=O)[C@H](N)c3ccc(O)cc3)C(=O)N2[C@H]1C(=O)O [Example 3, 6-[(-)α-amino-p-hydroxyphenylacetamido]Penicillanic Acid]
E.Coli
  MIC: 5 µg/mL (≈ 13.7 µM)
Shigella flexneri
  MIC: 2.5 µg/mL (≈ 6.84 µM)
E. coli 37
  Minimum inhibitory concentration, E. coli 37: 2.5 µg/mL
Proteus morganii G; None (alone), 18 hours at 37°C
  Minimum inhibitory concentration, Proteus morganii G: 250 µg/mL
Proteus morganii G; [3]
  Minimum inhibitory concentration, Proteus morganii G: 5.0 µg/mL
Proteus morganii G; [4]
  Minimum inhibitory concentration, Proteus morganii G: 5.0 µg/mL
Proteus vulgaris K; None (alone), 18 hours at 37°C
  Minimum inhibitory concentration, Proteus vulgaris K: 250 µg/mL
Proteus vulgaris K; [3]
  Minimum inhibitory concentration, Proteus vulgaris K: 2.5 µg/mL
Proteus vulgaris K; [4]
  Minimum inhibitory concentration, Proteus vulgaris K: 5.0 µg/mL
Proteus vulgaris K; [5]
  Minimum inhibitory concentration, Proteus vulgaris K: 50 µg/mL
Paracolon 232
  Minimum inhibitory concentration, Paracolon 232: 2.5 µg/mL
Klebsiella C 978; None (alone), 18 hours at 37°C
  Minimum inhibitory concentration, Klebsiella C 978: 250 µg/mL
Klebsiella C 978; in the presence of 100 μg./ml. Cloxacillin
  Minimum inhibitory concentration, Klebsiella C 978: 50 µg/mL
Klebsiella C 978; [3]
  Minimum inhibitory concentration, Klebsiella C 978: 50 µg/mL
Klebsiella C 978; [4]
  Minimum inhibitory concentration, Klebsiella C 978: 25 µg/mL
Klebsiella C 978; [5]
  Minimum inhibitory concentration, Klebsiella C 978: 50 µg/mL
Klebsiella C 978; in the presence of 100 μg./ml. Nafcillin
  Minimum inhibitory concentration, Klebsiella C 978: 50 µg/mL
clinical
  dose excreted at 6 h: 74.5%
[1]
  concentration at 0.5 h: 2900 ng/mL
  concentration at 1 h: 8250 ng/mL
  concentration at 2 h: 10800 ng/mL
  concentration at 4 h: 3100 ng/mL
  concentration at 6 h: 1130 ng/mL

## CC1(C)S[C@@H]2[C@H](NC(=O)[C@@H](N)c3ccc(O)cc3)C(=O)N2[C@H]1C(=O)O [Example 4, 6[(+)α-amino-p-hydroxyphenylacetamido]penicillanic Acid]
E.Coli
  MIC: 25 µg/mL (≈ 68.4 µM)

## CC1(C)S[C@@H]2C(NC(=O)C(N)c3cccc(O)c3)C(=O)N2[C@H]1C(=O)O (stereo partly drawn) [Example 7, 6[(-)α-amino-m-hydroxyphenylacetamido]penicillanic Acid]
E.Coli; listed as m OH -
  M.I.C. E.Coli: 5 µg/mL
Proteus mirabilis; listed as m OH -
  M.I.C. Proteus mirabilis: 2.5 µg/mL
Salm. typhi; listed as m OH -
  M.I.C. Salm. typhi: 1.25 µg/mL
Shigella flexneri; listed as m OH -
  M.I.C. Shigella flexneri: 2.5 µg/mL
Kleb. pneum; listed as m OH -
  M.I.C. Kleb. pneum: 1.25 µg/mL
clinical
  dose excreted at 6 h: 31%
[1]
  concentration at 0.5 h: 910 ng/mL
  concentration at 1 h: 2500 ng/mL
  concentration at 2 h: 2860 ng/mL
  concentration at 4 h: 1150 ng/mL
  concentration at 6 h: 440 ng/mL

## CC1(C)S[C@@H]2C(NC(=O)C(N)c3cccc(O)c3)C(=O)N2[C@H]1C(=O)O (stereo partly drawn) [Example 8, 6[(+)α-amino-m-hydroxyphenylacetamido]penicillanic Acid]
E.Coli; listed as m OH +
  M.I.C. E.Coli: 25 µg/mL
Proteus mirabilis; listed as m OH +
  M.I.C. Proteus mirabilis: 25 µg/mL
Salm. typhi; listed as m OH +
  M.I.C. Salm. typhi: 12.5 µg/mL
Shigella flexneri; listed as m OH +
  M.I.C. Shigella flexneri: 25 µg/mL
Kleb. pneum; listed as m OH +
  M.I.C. Kleb. pneum: 12.5 µg/mL

## CC1(C)S[C@@H]2[C@H](NC(=O)[C@H](N)c3ccc(OC(=O)OCc4ccccc4)cc3)C(=O)N2[C@H]1C(=O)O [Example 12, 6-[(-)-α-amino-α-(p-benzyloxycarbonyloxyphenyl)-acetamido]penicillanic acid]
E. coli 2
  MIC: 5 µg/mL (≈ 10 µM)
Staph. Oxford
  MIC: 0.1 µg/mL (≈ 0.2 µM)

## CC1(C)S[C@@H]2[C@H](NC(=O)[C@@H](N)c3ccccc3)C(=O)N2[C@H]1C(=O)O [None +, reference compound]
E.Coli
  MIC: 12.5 µg/mL (≈ 35.8 µM)
Salm. typhi
  MIC: 2.5 µg/mL (≈ 7.15 µM)
Kleb. pneum
  MIC: 5 µg/mL (≈ 14.3 µM)

## Cc1onc(-c2ccccc2Cl)c1C(=O)N[C@@H]1C(=O)N2[C@@H]1SC(C)(C)[C@@H]2C(=O)O [cloxacillin]
Gram-negative bacteria
  inhibition of the Gram-negative bacteria by the penicillinase-resistant penicillin by itself: None of these penicillinase-resistant penicillins by itself inhibits the Gram-negative bacteria at 100 μg./ml.

## Cc1onc(-c2c(Cl)cccc2Cl)c1C(=O)N[C@@H]1C(=O)N2[C@@H]1SC(C)(C)[C@@H]2C(=O)O [dicloxacillin]
[2]
  oral absorption of known penicillins (in words): better absorbed than cloxacillin
Gram-negative bacteria
  inhibition of the Gram-negative bacteria by the penicillinase-resistant penicillin by itself: None of these penicillinase-resistant penicillins by itself inhibits the Gram-negative bacteria at 100 μg./ml.

## Cc1onc(-c2c(F)cccc2Cl)c1C(=O)N[C@@H]1C(=O)N2[C@@H]1SC(C)(C)[C@@H]2C(=O)O [flucloxacillin]
Gram-negative bacteria
  inhibition of the Gram-negative bacteria by the penicillinase-resistant penicillin by itself: None of these penicillinase-resistant penicillins by itself inhibits the Gram-negative bacteria at 100 μg./ml.

## COc1cccc(OC)c1C(=O)N[C@@H]1C(=O)N2[C@@H]1SC(C)(C)[C@@H]2C(=O)O [methicillin]
Gram-negative bacteria
  inhibition of the Gram-negative bacteria by the penicillinase-resistant penicillin by itself: None of these penicillinase-resistant penicillins by itself inhibits the Gram-negative bacteria at 100 μg./ml.

## CCOc1ccc2ccccc2c1C(=O)N[C@@H]1C(=O)N2[C@@H]1SC(C)(C)[C@@H]2C(=O)O [nafcillin]
Gram-negative bacteria
  inhibition of the Gram-negative bacteria by the penicillinase-resistant penicillin by itself: None of these penicillinase-resistant penicillins by itself inhibits the Gram-negative bacteria at 100 μg./ml.
